# Laboratory results from patent publication US20240058364A1, “A COMPOSITION FOR USE IN THE TREATMENT OF RECTAL AND/OR INTESTINAL INFLAMMATION” (CANNAMORE BIOTECHS LTD., priority 2020, published 2024).
# Test system: IL8 secretion from TNFα induced Caco-2 cells
# Assay: IL8 secretion from TNFα induced Caco-2 cells (HTRF)
# Assay type: cell-based, Human
# Settings: 24 h incubation; combinations: CBD 30 μM with NaB or NaP 20 mM
# Experimental: Cell lines were cultured according to standard mammalian tissue culture protocols and sterile technique. Human colon epithelial cells, Caco-2, were cultured in high glucose Dulbecco's Modified Eagle Medium (DMEM). Human monocytes THP-1 cells line were cultured in RPMI medium 1640. Both media were supplemented with 10% fetal bovine serum (FBS), 2 mM 1-glutamine and 0.1% penicillin-streptomycin solution in a humidified atmosphere (5% CO2, 95% air, 37° C.) in a 75 cm2 cell culture treated flask (Eppendorf). All the media and supplements were obtained from Biological Industries.
# Interleukin 8 (IL 8) detection and quantification was performed with Homogeneous Time-Resolved fluorescence (HTRF).
# Caco-2 cells were seeded in a 96 micro well delta surface plates (Eppendorf) at a starting confluence of 2×10^4 cells/well and were incubated for 21 days. Growth medium was replaced every 2-3 days.
# After 22 days, the medium was replaced with medium containing both TNFα (as a damage inducer) and the tested sample (as treatment) using specific media containing 5% FBS. After 24 hours incubation, the supernatant was collected and stored for cytokine analysis. The supernatant was diluted up to 5 times in working media to avoid the hook effect.
# HTRF assays were performed in white 96-well plate (CisBio Bioassays) with a total working volume of 20 μL. All HTRF reagents were purchased from CisBio Bioassays and reconstituted according to the manufacturer protocols. For each assay 16 μL of diluted supernatants samples were incubate with 4 μL mixed solution containing donor and acceptor antibodies.
# After 2 h incubation HTRF signals were measured using SPARK multimode microplate reader with an excitation filter at 320 nm and fluorescence wavelength measurement at 620 and 665 nm, an integration delay of 60 μs and an integration time of 400 μs. Results were analyzed with a two-wavelength signal ratio: [intensity (665 nm)/intensity (620 nm)]*104. Calculation and analysis of cytokines release was performed according to the manufacturer protocols and using the 4PL 1/Y2 formula in GraphPad Prism software.
row,SMILES,IL8 secretion from TNFα induced Caco2 cells (result in words)
1,"C=C(C)[C@@H]1CCC(C)=C[C@H]1c1c(O)cc(CCCCC)cc1O [CBD, 2-[(6R)-3-Methyl-6-prop-1-en-2-yl-1cyclohex-2-envyl]-5pentylbenzene-1,3-diol, reference compound]",didn't exhibit any significant effect
2,"CCC(=O)[O-].[Na+] [NaP, sodium propionate]",mild reduction of IL8 secretion
3,"CCCC(=O)[O-].[Na+] [NaB, sodium butyrate]",didn't exhibit any significant effect
